{"source": "patent US8399525B2", "about": "“Treatment of gaucher disease with specific pharmacological chaperones and monitoring treatment using surrogate markers” (Amicus Therapeutics, Inc., priority 2007, dated 2013)", "key": {"N370S GCase": {"target": "T1, N370S GCase (Homo sapiens, UniProt P04062, N409S)", "T1 sequence (P04062 40-536 N409S)": "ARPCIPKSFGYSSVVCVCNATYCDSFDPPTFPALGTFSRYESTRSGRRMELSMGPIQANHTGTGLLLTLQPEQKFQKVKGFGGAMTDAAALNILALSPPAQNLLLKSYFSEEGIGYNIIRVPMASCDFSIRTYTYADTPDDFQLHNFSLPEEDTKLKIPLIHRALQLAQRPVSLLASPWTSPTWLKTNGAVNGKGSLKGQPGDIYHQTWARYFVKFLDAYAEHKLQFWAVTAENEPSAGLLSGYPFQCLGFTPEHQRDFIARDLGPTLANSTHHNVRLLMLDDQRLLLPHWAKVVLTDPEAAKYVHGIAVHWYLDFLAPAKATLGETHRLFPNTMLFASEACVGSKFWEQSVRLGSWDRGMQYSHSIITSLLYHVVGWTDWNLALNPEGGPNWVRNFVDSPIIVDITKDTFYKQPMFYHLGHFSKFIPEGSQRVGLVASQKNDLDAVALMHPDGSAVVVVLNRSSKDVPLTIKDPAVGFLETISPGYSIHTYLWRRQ", "assay": "Pulse-chase experiments on N370S GCase", "conditions": "data not shown"}, "L444P transgenic mice": {"tested_on": "L444P transgenic mice", "assay": "Body and tissue weight measurements in L444P transgenic mice", "assay_type": "in vivo", "method": "(§1) Isofagomine treatment. Mice were administered isofagomine tartrate in their drinking water, ad libitum, at a concentration of 20 mg/kg.\n(§2) Surrogate marker measurement. At the end of 4, 12, or 24 weeks, mice were sacrificed and evaluated for (i) enhancement of GCase enzyme activity in liver, spleen, lung and brain; (ii) chitotriosidase activity; (ii) body, spleen, and liver weight; and (iv) serum IgG, cholesterol, and liver enzyme levels. In addition, chaperone concentration in plasma and in the foregoing tissues will also be determined.\nb. Body and tissue weight measurements: Animals were weighed prior to sacrifice after […]. Following sacrifice, spleen and liver were removed and weighed."}, "GCase": {"target": "T2, GCase (Mus musculus, UniProt P17439, L462P)", "T2 construct": "Liver, brain, spleen, and lung tissue is freshly harvested; from tissue; host or cells: liver, spleen, lung and brain homogenates of L444P mice treated with isofagomine", "T2 sequence (P17439 20-515 L462P)": "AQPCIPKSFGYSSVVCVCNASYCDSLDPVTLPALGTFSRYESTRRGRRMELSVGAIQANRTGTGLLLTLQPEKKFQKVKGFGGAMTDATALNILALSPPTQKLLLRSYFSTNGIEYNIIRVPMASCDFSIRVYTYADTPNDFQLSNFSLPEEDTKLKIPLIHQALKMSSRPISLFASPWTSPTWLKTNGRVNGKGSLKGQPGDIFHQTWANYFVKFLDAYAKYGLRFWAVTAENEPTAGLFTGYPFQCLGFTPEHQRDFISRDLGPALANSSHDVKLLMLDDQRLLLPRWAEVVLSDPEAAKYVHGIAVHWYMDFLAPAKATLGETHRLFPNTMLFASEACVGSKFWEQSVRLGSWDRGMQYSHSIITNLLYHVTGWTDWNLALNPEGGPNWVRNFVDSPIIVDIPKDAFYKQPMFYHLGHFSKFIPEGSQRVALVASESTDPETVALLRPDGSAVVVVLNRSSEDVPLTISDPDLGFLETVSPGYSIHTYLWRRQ", "assay": "GCase activity assay in tissue of L444P transgenic mice", "assay_type": "in vivo", "method": "as §1\nas §2, with “[…],” for “At the end of 4, 12, or 24 weeks,”\na. GCase activity assays in tissue: Liver, brain, spleen, and lung tissue is freshly harvested (blood washed away with PBS), or thawed from frozen stock. Tissue is minced tissue and homogenized on ice in 200-500 μl McIlvaine (MI) buffer (0.25% sodium taurocholate, 0.1% Triton x-100 in 0.1M citrate and 0.2M phosphate buffer, pH 5.2), and centrifuged at 10,000×g. The supernatant is collected and may be frozen at this step.\nAbout 1-10 μl of supernatant from the tissue homogenates is added to a clear 96-well plate for the Micro BCA Protein Assay (Pierce, cat # 23235) to quantitate the amount of total protein according to the manufacturer's protocol. As a negative control, another 10 μl is added to a black plate, mixed with 10 μl of 2.5 mM CBE (2.7 mg Conduritol B Epoxide in 6.7 ml buffer), an inhibitor of GCase activity, and left at room temperature (RT) for 30 minutes. 50 μl of 3 mM 4-methal Umbelliferyl beta-D-glucoside (4-MU-beta-D-glucoside; made fresh, powder is dissolved in 0.2 ml of DMSO, then q.s. to proper volume with MI buffer), a GCase substrate, is then added, and the black plate is further incubated at 37° C. for 1 hr. After incubation, 10 μl of supernatant is added to a second black plate, mixed with 10 μl of MI buffer and 50 μl 6 mM of GCase substrate 4-MU-beta-D-glucoside, and incubated at 37° C. for 1 hr. The reaction is then stopped by adding 70 μl 0.2 M glycine, pH 10.8. The plate is read in a plate-reader (Victor2 1420 multilabel counter; Wallac) at F460.\nRelative […] is determined by the following equation: F460 without CBE−F460 with CBE)/(A550 sample−A550 buffer)\nF460 reading is converted into nmole 4-MU based on 4-MU standard curve and A550 is converted into mg of protein based on the protein standard curve. One unit of GCase activity is defined as nmole of 4-MU released in one hour.\nWashout study. To determine if and in what time frame the effects of drinking water dosed isofagomine on L444P mice regress after cessation of the treatment, a washout study was performed. […] male 3 month old L444P mice were dosed at about 10 mg/kg/day for 4 weeks with an equal number of mice untreated as a control. Four treated and four untreated mice were sacrificed at the end of 4 weeks, and the remaining animals were not further treated with isofagomine, i.e., they were given normal drinking water, for another two weeks prior to sacrifice and evaluation of the above-described surrogate markers."}, "[1]": {"conditions": "drinking water, after two weeks of treatment (isofagomine: persisted through 4-12 weeks)"}, "[2]": {"conditions": "washout study, 10 mg/kg/day, after 4 weeks of treatment"}}, "data": [{"smiles": "OC[C@H]1CNC[C@@H](O)[C@@H]1O", "note": "[isofagomine, (3R,4R,5R)-5-(hydroxymethyl)-3,4-piperidinediol]", "values": [{"measurement": "N370S GCase in the ER", "setting": "N370S GCase", "result": "increases N370S GCase in the ER"}, {"measurement": "liver weight", "setting": "L444P transgenic mice; after 12 weeks", "result": "did not significantly change"}, {"measurement": "body weight", "setting": "L444P transgenic mice; after 12 weeks of treatment, wild-type about 40 g, untreated about 29 g", "result": "about 33 g"}, {"measurement": "liver weight", "setting": "L444P transgenic mice; after 24 weeks", "result": "significant reduction"}, {"measurement": "GCase activity in brain", "setting": "GCase; after 2 and 4 weeks of treatment, untreated about 1 U/mg", "result": "about 4.5 U/mg"}, {"measurement": "GCase activity in brain", "setting": "GCase; after 12 weeks of treatment, p<0.001, untreated about 1 U/mg", "result": "about 6 U/mg"}, {"measurement": "GCase activity in brain", "setting": "GCase; [1]", "result": "Significant increase"}, {"measurement": "GCase activity in liver", "setting": "GCase; [1]", "result": "Significant increase"}, {"measurement": "GCase activity in lung", "setting": "GCase; [1]", "result": "Significant increase"}, {"measurement": "GCase activity in spleen", "setting": "GCase; [1]", "result": "Significant increase"}, {"measurement": "GCase activity in brain", "setting": "GCase; [2]", "result": "significantly elevated"}, {"measurement": "GCase activity in liver", "setting": "GCase; [2]", "result": "significantly elevated"}, {"measurement": "GCase activity in lung", "setting": "GCase; [2]", "result": "significantly elevated"}, {"measurement": "GCase activity in spleen", "setting": "GCase; [2]", "result": "significantly elevated"}]}]}
